Measurements from patent US20240116985A1, “STAPLED PEPTIDES AND METHODS THEREOF” (priority 2020, published 2024).
In brackets after ≈: the same amount, converted by molar mass.

Experiments:
CHI Log D procedure = format: physicochemical; details: for CHI Log D: pH 7.4
Solubility in PBS = format: physicochemical
Method in brief: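 The PBS solution was ultracentrifuged and the supernatant analyzed by HPLC. Its peak area was divided by that of a 50 μM peptide DMSO reference injection and multiplied by 50 uM to give solubility.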

SMILES | CHI Log D (CHI Log D procedure) | Solubility (Solubility in PBS) [µM] | logD (CHI Log D procedure; pH 7.4, CHI Log D)
CC(=O)N1CCC[C@]12CC=CCCCC1(CCCC=CCCCCCC[C@@](C)(C(=O)N[C@@H](Cc3ccccc3)C(=O)N[C@@H](Cc3csc4ccccc34)C(=O)N[C@@H](CCC(N)=O)C(N)=O)NC(=O)[C@H](C)NC(=O)[C@H](Cc3c[nH]cn3)NC(=O)[C@H](C)NC(=O)[C@H](C)NC(=O)[C@H](CC(=O)O)NC(=O)[C@H](CC(=O)O)NC1=O)NC(=O)[C@H](C)NC(=O)[C@H](CC(=O)O)NC2=O (stereo partly drawn) [I-363, Ac-PL3-Asp-Ala-B5-Asp-Asp-Ala-Ala-His-Ala-S8-Phe-BztA-Gln-NH2] | 2.09 | 32 (≈ 56.3 µg/mL) | 
CC(=O)N1CCC[C@]12CC=CCCCC1(CCCC=CCCCOC(=O)N3CC[C@@](C(=O)N[C@@H](Cc4ccsc4)C(=O)N[C@@H](Cc4csc5ccccc45)C(=O)N[C@@H](CCC(N)=O)C(N)=O)(C3)NC(=O)[C@H](CC(C)C)NC(=O)[C@H](Cc3ccccc3)NC(=O)[C@H](C)NC(=O)[C@H](CCCCNC(=O)c3ccc(-n4cc(CNC(=O)c5ccc6c(c5)C5(OC6=O)c6ccc(O)cc6Oc6cc(O)ccc65)nn4)cc3)NC(=O)[C@H](CC(C)C)NC(=O)[C@H](CC(=O)O)NC1=O)NC(=O)[C@H](CC(C)(C)C)NC(=O)[C@H](CC(=O)O)NC2=O (stereo partly drawn) [I-868, Ac-PL3-Asp-Npg-B5-Asp-Leu-[FAM6Ppg][p1TB]Lys-Ala-Phe-Leu-PyrS2-3Thi-BztA-Gln-NH2] |  | 10 (≈ 25.3 µg/mL) | 1.88
CC[C@H](C)[C@@H]1NC(=O)[C@H](CC(=O)O)NC(=O)[C@]2(CC=CCCCC3(CCCC=CCCCCCC[C@@](C)(C(=O)N[C@@H](Cc4ccccc4)C(=O)N[C@@H](Cc4ccccc4)C(=O)N[C@@H](CCC(N)=O)C(N)=O)NC(=O)[C@H](CCC(N)=O)NC(=O)[C@H](Cc4csc5ccccc45)NC(=O)[C@H](C)NC(=O)[C@H](C)NC(=O)[C@H](CCC(=O)O)NC(=O)[C@H](CC(=O)O)NC3=O)NC1=O)CCCN2C(C)=O (stereo partly drawn) [I-586, Ac-PL3-Asp-Ile-B5-Asp-Glu-Ala-Ala-BztA-Gln-S8-Phe-Phe-Gln-NH2] | 2.39 | 50 (≈ 94.2 µg/mL) | 
CC(=O)N1CCC[C@]12CC=CCCCC1(CCCC=CCCCCCC[C@@](C)(C(=O)N[C@@H](Cc3ccccc3)C(=O)N[C@@H](Cc3c[nH]c4ccccc34)C(=O)N[C@@H](CCC(N)=O)C(N)=O)NC(=O)[C@H](C(C)C)NC(=O)[C@H](Cc3cn(C)cn3)NC(=O)[C@H](C)NC(=O)[C@H](C)NC(=O)[C@H](CC(=O)O)NC(=O)[C@H](CC(=O)O)NC1=O)NC(=O)[C@H](C)NC(=O)[C@H](CC(=O)O)NC2=O (stereo partly drawn) [I-329, Ac-PL3-Asp-Ala-B5-Asp-Asp-Ala-Ala-1meH-Val-S8-Phe-Trp-Gln-NH2] | 2.01 | 41 (≈ 73.2 µg/mL) | 
CC(=O)N1CCC[C@]12CC=CCCCC1(CCCC=CCCCCCC[C@@](C)(C(=O)N[C@@H](Cc3ccccc3)C(=O)N[C@@H](Cc3c[nH]c4ccccc34)C(=O)N[C@@H](CCC(N)=O)C(N)=O)NC(=O)[C@H](C(C)C)NC(=O)[C@H](Cc3ccccc3)NC(=O)[C@H](C)NC(=O)[C@H](C)NC(=O)[C@H](CC(=O)O)NC(=O)[C@H](C)NC1=O)NC(=O)[C@H](C)NC(=O)[C@H](CC(=O)O)NC2=O (stereo partly drawn) [I-350, Ac-PL3-Asp-Ala-B5-Ala-Asp-Ala-Ala-Phe-Val-S8-Phe-Trp-Gln-NH2] | 2.887 | 48 (≈ 83.4 µg/mL) | 
COCCOCCC(=O)NCCCC[C@@H]1NC(=O)[C@H](C)NC(=O)[C@H](CC(=O)O)NC(=O)[C@H](CC(=O)O)NC(=O)C2(CCCC=CCCCOC(=O)N3CC[C@@](C(=O)N[C@@H](Cc4ccsc4)C(=O)N[C@@H](Cc4csc5ccccc45)C(=O)N[C@@H](CCC(N)=O)C(N)=O)(C3)NC(=O)[C@H](CC(N)=O)NC(=O)[C@H](Cc3ccccc3)NC1=O)CCCC=CC[C@]1(CCCN1C(C)=O)C(=O)N[C@@H](CC(=O)O)C(=O)N[C@@H](CC(C)(C)C)C(=O)N2 (stereo partly drawn) [I-892, Ac-PL3-Asp-Npg-B5-Asp-Asp-Ala-[mPEG2]Lys-Phe-Asn-PyrS2-3Thi-BztA-Gln-NH2] | 1.475 | 33 (≈ 69.5 µg/mL) | 
CC(=O)N1CCC[C@]12CC=CCCCC1(CCCC=CCCCCCC[C@@](C)(C(=O)N[C@@H](Cc3cccc(F)c3F)C(=O)N[C@@H](Cc3csc4ccccc34)C(=O)N[C@@H](CCC(N)=O)C(N)=O)NC(=O)[C@H](C(C)C)NC(=O)[C@H](Cc3ccccc3)NC(=O)[C@H](C)NC(=O)[C@H](C)NC(=O)[C@H](CCC(=O)O)NC(=O)[C@H](CC(=O)O)NC1=O)NC(=O)[C@H](C)NC(=O)[C@H](CC(=O)O)NC2=O (stereo partly drawn) [I-388, Ac-PL3-Asp-Ala-B5-Asp-Glu-Ala-Ala-Phe-Val-S8-23FF-BztA-Gln-NH2] | 2.863 | 10 (≈ 18.5 µg/mL) | 
CC(=O)N1CCC[C@]12CC=CCCCC1(CCCC=CCCCCCC[C@@](C)(C(=O)N[C@@H](Cc3ccccc3)C(=O)N[C@@H](Cc3csc4ccccc34)C(=O)N[C@@H](CCC(N)=O)C(N)=O)NC(=O)[C@H](C)NC(=O)[C@H](Cc3c[nH]cn3)NC(=O)[C@H](C)NC(=O)[C@H](C)NC(=O)[C@H](CC(=O)O)NC(=O)[C@H](CC(=O)O)NC1=O)NC(=O)[C@H](C)NC(=O)[C@H](CC(=O)O)NC2=O (stereo partly drawn) [I-364, Ac-PL3-Asp-Ala-B5-Asp-Asp-Ala-Ala-His-Ala-S8-Phe-BztA-Gln-NH2] | 2.137 | 26 (≈ 45.8 µg/mL) | 
CC[C@H](C)[C@@H]1NC(=O)[C@H](CC(=O)O)NC(=O)[C@]2(CC=CCCCC3(CCCC=CCCCCCC[C@@](C)(C(=O)N[C@@H](Cc4ccccc4)C(=O)N[C@@H](Cc4ccccc4)C(=O)N[C@@H](CCC(N)=O)C(N)=O)NC(=O)[C@H](CCC(N)=O)NC(=O)[C@H](Cc4csc5ccccc45)NC(=O)[C@H](C)NC(=O)[C@H](C)NC(=O)[C@H](CCC(=O)O)NC(=O)[C@H](CC(=O)O)NC3=O)NC1=O)CCCN2C(C)=O (stereo partly drawn) [I-585, Ac-PL3-Asp-Ile-B5-Asp-Glu-Ala-Ala-BztA-Gln-S8-Phe-Phe-Gln-NH2] | 2.364 | 50 (≈ 94.2 µg/mL) | 
CC(=O)N1CCC[C@]12CC=CCCCC1(CCCC=CCCCCCC[C@@](C)(C(=O)N[C@@H](Cc3ccccc3)C(=O)N[C@@H](C)C(=O)N[C@@H](CCC(N)=O)C(N)=O)NC(=O)[C@H](C(C)C)NC(=O)[C@H](Cc3ccccc3)NC(=O)[C@H](C)NC(=O)[C@H](C)NC(=O)[C@H](CC(=O)O)NC(=O)[C@H](CC(=O)O)NC1=O)NC(=O)[C@H](C)NC(=O)[C@H](CC(=O)O)NC2=O (stereo partly drawn) [I-358, Ac-PL3-Asp-Ala-B5-Asp-Asp-Ala-Ala-Phe-Val-S8-Phe-Ala-Gln-NH2] | 1.882 | 50 (≈ 83.3 µg/mL) | 
CC(=O)N1CCC[C@]12CC=CCCCC1(CCCC=CCCCCCC[C@@](C)(C(=O)N[C@@H](Cc3ccc(C(N)=O)cc3)C(=O)N[C@@H](Cc3csc4ccccc34)C(=O)N[C@@H](CCC(N)=O)C(N)=O)NC(=O)[C@H](C(C)C)NC(=O)[C@H](Cc3ccccc3)NC(=O)[C@H](C)NC(=O)[C@H](C)NC(=O)[C@H](CC(=O)O)NC(=O)[C@H](CC(=O)O)NC1=O)NC(=O)[C@H](C)NC(=O)[C@H](CC(=O)O)NC2=O (stereo partly drawn) [I-338, Ac-PL3-Asp-Ala-B5-Asp-Asp-Ala-Ala-Phe-Val-S8-4CBMF-BztA-Gln-NH2] | 1.586 | 47 (≈ 86.5 µg/mL) | 
CC(=O)N1CCC[C@]12CC=CCCCC1(CCCC=CCCCCCC[C@@](C)(C(=O)N[C@@H](Cc3ccccc3)C(=O)N[C@@H](Cc3c[nH]c4ccccc34)C(=O)N[C@@H](CCC(N)=O)C(N)=O)NC(=O)[C@H](C(C)C)NC(=O)[C@H](Cc3ccccc3)NC(=O)[C@H](C)NC(=O)[C@H](C)NC(=O)[C@H](CC(=O)O)NC(=O)[C@H](C)NC1=O)NC(=O)[C@H](C)NC(=O)[C@H](CC(=O)O)NC2=O (stereo partly drawn) [I-351, Ac-PL3-Asp-Ala-B5-Ala-Asp-Ala-Ala-Phe-Val-S8-Phe-Trp-Gln-NH2] | 2.944 | 50 (≈ 86.9 µg/mL) | 
CC(=O)N1CCC[C@]12CC=CCCCC1(CCCC=CCCCCCC[C@@](C)(C(=O)N[C@@H](Cc3ccccn3)C(=O)N[C@@H](Cc3csc4ccccc34)C(=O)N[C@@H](CCC(N)=O)C(N)=O)NC(=O)[C@H](C(C)C)NC(=O)[C@H](Cc3ccccc3)NC(=O)[C@H](C)NC(=O)[C@H](C)NC(=O)[C@H](CCC(=O)O)NC(=O)[C@H](CC(=O)O)NC1=O)NC(=O)[C@H](C)NC(=O)[C@H](CC(=O)O)NC2=O (stereo partly drawn) [I-383, Ac-PL3-Asp-Ala-B5-Asp-Glu-Ala-Ala-Phe-Val-S8-2pyrA-BztA-Gln-NH2] | 1.859 | 36 (≈ 65.3 µg/mL) | 
CC(=O)N1CCC[C@]12CC=CCCCC1(CCCC=CCCCCCC[C@@](C)(C(=O)N[C@@H](Cc3ccccc3)C(=O)N[C@@H](Cc3csc4ccccc34)C(=O)N[C@@H](CCC(N)=O)C(N)=O)NC(=O)[C@H](CC(N)=O)NC(=O)[C@H](Cc3ccccc3)NC(=O)[C@H](C)NC(=O)[C@H](C)NC(=O)[C@H](CCC(=O)O)NC(=O)[C@H](CNS(C)(=O)=O)NC1=O)NC(=O)[C@H](C)NC(=O)[C@H](CC(=O)O)NC2=O (stereo partly drawn) [I-529, Ac-PL3-Asp-Ala-B5-[MeSO2]Dap-Glu-Ala-Ala-Phe-Asn-S8-Phe-BztA-Gln-NH2] | 2.854 | 50 (≈ 93.8 µg/mL) | 
CC(=O)N1CCC[C@]12CC=CCCCC1(CCCC=CCCCCCC[C@@](C)(C(=O)N[C@@H](Cc3ccc(C(=O)O)cc3)C(=O)N[C@@H](Cc3csc4ccccc34)C(=O)N[C@@H](CCC(N)=O)C(N)=O)NC(=O)[C@H](C(C)C)NC(=O)[C@H](Cc3ccccc3)NC(=O)[C@H](C)NC(=O)[C@H](C)NC(=O)[C@H](CC(=O)O)NC(=O)[C@H](CC(=O)O)NC1=O)NC(=O)[C@H](C)NC(=O)[C@H](CC(=O)O)NC2=O (stereo partly drawn) [I-340, Ac-PL3-Asp-Ala-B5-Asp-Asp-Ala-Ala-Phe-Val-S8-4COOHF-BztA-Gln-NH2] | 1.341 | 49 (≈ 90.3 µg/mL) | 
CC(=O)N1CCC[C@]12CC=CCCCC1(CCCC=CCCCCCC[C@@](C)(C(=O)N[C@@H](Cc3ccccc3)C(=O)N[C@@H](Cc3csc4ccccc34)C(=O)N[C@@H](CCC(N)=O)C(N)=O)NC(=O)[C@H](C(C)C)NC(=O)[C@H](Cc3ccccn3)NC(=O)[C@H](C)NC(=O)[C@H](C)NC(=O)[C@H](CCC(=O)O)NC(=O)[C@H](CC(=O)O)NC1=O)NC(=O)[C@H](C)NC(=O)[C@H](CC(=O)O)NC2=O (stereo partly drawn) [I-386, Ac-PL3-Asp-Ala-B5-Asp-Glu-Ala-Ala-2pyrA-Val-S8-Phe-BztA-Gln-NH2] | 2.14 | 47 (≈ 85.2 µg/mL) | 
